From article PMC9610999, “Itraconazole-Induced Increases in Gilteritinib Exposure Are Mediated by CYP3A and OATP1B” (Molecules, 2022)
Like-named read-outs stand apart in the source and are kept apart here.

Columns and labels:
[1] = cited from earlier work
OATP1B1 = biological target: T1, OATP1B1 (Homo sapiens, UniProt Q9Y6L6); assay: Competitive counterflow assay with ACE in OATP1B1 overexpressing HEK293 cells; format: cell-based; details: gilteritinib 0.1–20 μM, 5 μM ACE, normalized to ACE alone
T1 construct: expressed in transfected cells; host or cells: HEK293
T1 sequence (Q9Y6L6 1-691): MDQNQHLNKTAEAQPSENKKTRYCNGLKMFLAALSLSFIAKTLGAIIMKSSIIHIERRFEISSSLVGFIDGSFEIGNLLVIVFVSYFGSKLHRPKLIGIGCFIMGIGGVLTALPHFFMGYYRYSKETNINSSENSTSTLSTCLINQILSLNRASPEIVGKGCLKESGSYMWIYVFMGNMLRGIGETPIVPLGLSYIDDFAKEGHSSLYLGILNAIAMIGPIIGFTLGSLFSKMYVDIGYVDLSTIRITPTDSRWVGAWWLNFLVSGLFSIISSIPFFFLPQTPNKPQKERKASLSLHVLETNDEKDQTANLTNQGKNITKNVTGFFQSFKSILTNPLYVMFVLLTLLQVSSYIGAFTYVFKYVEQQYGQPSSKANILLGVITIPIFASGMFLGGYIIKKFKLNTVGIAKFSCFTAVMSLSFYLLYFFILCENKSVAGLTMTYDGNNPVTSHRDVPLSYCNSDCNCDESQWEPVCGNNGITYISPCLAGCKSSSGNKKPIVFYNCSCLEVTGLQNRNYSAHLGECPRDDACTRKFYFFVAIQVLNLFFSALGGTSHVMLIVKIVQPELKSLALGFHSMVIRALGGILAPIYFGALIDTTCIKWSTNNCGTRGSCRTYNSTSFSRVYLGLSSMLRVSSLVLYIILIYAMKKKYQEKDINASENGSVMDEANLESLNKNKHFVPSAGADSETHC
Protocol: OATP1B1 overexpressing cells or vector control were seeded in 96-well plates in 200 μL DMEM and incubated for 24 h. The medium was aspirated off and the cells were washed three times with PBS at room temperature. The cells were then treated with 100 μL of 5 μM ACE and incubated at 37 °C for 15 min in uptake buffer. The supernatant was aspirated off and 100 μL of 5 μM ACE alone or in combination with DMSO or gilteritinib (0.1–20 μM) in uptake buffer were added to the cells. The plates were further incubated for 20 min at 37 °C. The supernatant was removed, and the cells were washed three times with 200 μL of ice-cold PBS. Lastly, 200 μL of 0.1 N NaOH was added to cells and incubated for 20 min at room temperature. Fluorescence was measured on a plate reader at excitation and emission wavelengths of 460 and 510 nm, respectively. The intracellular concentrations of ACE were calculated by comparison of fluorescence values observed with control samples incubated with ACE alone, which were set to 100%.

[2] = Plasma pharmacokinetics of oral gilteritinib in mice, with or without itraconazole pretreatment; format: in vivo; details: for Cmax / AUC(0-t): male, mouse, plasma, po, 10 mg/kg, gilteritinib 10 mg/kg p.o., mean (SD); for AUC(0-t): read-out: Gilteritinib AUC0–24h
Text: Male and female CYP3A(−/−) mice and age- and sex-matched wild-type mice on an FVB/NTac (CYP3A(+/+)) background were bred in-house. Male OATP1B2(−/−) mice and age and sex-matched wild-type mice on a DBA1/lacJ (OATP1B2(+/+)) background were bred in-house. All mice were aged 8–16 weeks and weighed 18–30 g. Littermates of the same sex were housed in groups of five or fewer in a temperature- and light-controlled environment (12-h light/dark cycles) in cages lined with absorbent bedding. Mice were given free access to standard food and water. All breeding and experimental procedures were conducted with the approval of the University Laboratory Animal Resources Animal Care and Use Committee at The Ohio State University under protocol number 201500000101-R2.
For in vivo pharmacokinetic studies, mice were randomly divided into experimental groups of equal size. Gilteritinib powder was dissolved in 0.5% methylcellulose solution in distilled sterile water at a concentration of 2 mg/mL and was administered via oral gavage at a body weight normalized dose of 10 mg/kg. The dose of gilteritinib was chosen based on previous preclinical characterization of gilteritinib pharmacokinetics. Itraconazole powder was dissolved in a solvent comprised of 5% DMSO, 70% PEG300, and 25% distilled sterile water and administered orally at a dose of 100 mg/kg. The dose of itraconazole was based on previous work studying preclinical DDI with itraconazole. For combination treatments, itraconazole was always given 30 min prior to gilteritinib.
Pharmacokinetic studies were performed in accordance with a repeat sampling strategy described previously. After a single dose of gilteritinib, 20–40 μL of whole blood samples were collected from each mouse at time points ranging from 0.5–24 h after dosing. Samples procured during the first three time points were collected from the submaxillary vein using a sterile, disposable 4 mm or 5 mm Goldenrod animal blood lancet and collected into a glass micro-hematocrit heparinized capillary tube. For samples obtained at the fourth and fifth time points, the mice were sedated using 2% isoflurane and whole blood was obtained via the retro-orbital venous plexus. At the final time point, mice were euthanized via carbon dioxide inhalation, whole blood was collected by cardiac puncture with a needle and 1-mL syringe and transferred to a 1.5-mL heparinized tube. All samples were centrifuged at 13,000× g for 5 min and the plasma supernatant was transferred to a 0.5-mL tube, snap-frozen on dry ice, and stored at −80 °C until the day of analysis.
Pharmacokinetic parameters were estimated using non-compartmental analyses using Phoenix WinNonlin version 8.1 (Certara, Princeton, NJ, USA). Estimated measures of exposure included the peak plasma concentration (Cmax) and the area under the plasma concentration–time curve (AUC).

[3] = CYP3A(−/−) on FVB/NTac background, CYP3A(−/−) male mice, itraconazole 100 mg/kg 30 min before
[4] = CYP3A(−/−) on FVB/NTac background, CYP3A(−/−) male mice, no co-treatment
[5] = DBA/1J (wild-type), Wild-type DBA/1J male mice, no co-treatment
[6] = FVB (wild-type), Wild-type FVB male mice, itraconazole 100 mg/kg 30 min before
[7] = FVB (wild-type), Wild-type FVB male mice, no co-treatment
[8] = OATP1B2(−/−) on DBA1/lacJ background, OATP1B2(−/−) male mice, itraconazole 100 mg/kg 30 min before
[9] = OATP1B2(−/−) on DBA1/lacJ background, OATP1B2(−/−) male mice, no co-treatment, experiment compared with itraconazole co-treatment
[10] = OATP1B2(−/−) on DBA1/lacJ background, OATP1B2(−/−) male mice, no co-treatment, experiment compared with wild-type DBA/1J

CCc1nc(C(N)=O)c(Nc2ccc(N3CCC(N4CCN(C)CC4)CC3)c(OC)c2)nc1NC1CCOCC1 [Gilteritinib]
Maximum tolerated dose ([1]; ref 4): 300 mg | Maximum tolerated dose ([1]; ref 29): 200 mg | Effect on fluorescent signal of ACE in cells (competitive counterflow; transported substrate) (OATP1B1): decreased the fluorescent signal in cells in a concentration-dependent manner | Gilteritinib AUC Fold Increase ([2]; CYP3A(−/−) mice, no co-treatment, vs. WT): 1.3 (vs. WT) fold | Gilteritinib AUC Fold Increase ([2]; CYP3A(−/−) mice, no co-treatment, vs. WT, listed as gilteritinib): 1.3 fold | Gilteritinib AUC Fold Increase ([2]; CYP3A(−/−) mice, with itraconazole 100 mg/kg vs. Vehicle): 0.97 (vs. Vehicle) fold | Gilteritinib AUC Fold Increase ([2]; OATP1B2(−/−) mice, no co-treatment, vs. WT): 1.4 (vs. WT) fold | Gilteritinib AUC Fold Increase ([2]; OATP1B2(−/−) mice, no co-treatment, vs. WT, listed as gilteritinib): 1.4 fold | Gilteritinib AUC Fold Increase ([2]; OATP1B2(−/−) mice, with itraconazole 100 mg/kg vs. Vehicle): 0.84 (vs. Vehicle) fold | Gilteritinib AUC Fold Increase ([2]; Wild-type FVB mice, with itraconazole 100 mg/kg vs. Vehicle): 2.5 (vs. Vehicle) fold | Gilteritinib AUC Fold Increase ([2]; Wild-type FVB mice, with itraconazole 100 mg/kg vs. Vehicle, listed as gilteritinib): about 2.5 fold | Cmax [2, 3]: 430 ng/mL | AUC(0-t) [2, 3]: 5840 ng·h/mL | Cmax [2, 4]: 380 ng/mL | AUC(0-t) [2, 4]: 5990 ng·h/mL | Cmax [2, 5]: 260 ng/mL | AUC(0-t) [2, 5]: 4550 ng·h/mL | Cmax [2, 6]: 960 ng/mL | AUC(0-t) [2, 6]: 11500 ng·h/mL | Cmax [2, 7]: 310 ng/mL | AUC(0-t) [2, 7]: 4650 ng·h/mL | Cmax [2, 8]: 1350 ng/mL | AUC(0-t) [2, 8]: 15000 ng·h/mL | Cmax [2, 9]: 1430 ng/mL | AUC(0-t) [2, 9]: 17800 ng·h/mL | Cmax [2, 10]: 390 ng/mL | AUC(0-t) [2, 10]: 6160 ng·h/mL
